These results are taken from patent US8343964B2, “Indolic derivatives, their preparation processes and their uses in particular as antibacterials” (Universite Joseph Fourier, priority 2007, dated 2013).

Series [1] concerns S. aureus ITS-1199B (overexpression of the efflux pump NorA). In kind it is cell-based, Staphylococcus aureus. The note with it: resistant strain R NorA; for MIC (μg/ml) of compound in the presence of ciprofloxacin at 4 μg/ml (c/4): ciprofloxacin 4 μg/ml (c/4); for MIC (μg/ml) of compound in the presence of ciprofloxacin at 8 μg/ml (c/2): ciprofloxacin 8 μg/ml (c/2). On the procedure:
The two strains used are Staphylococcus aureus (ATCC 25923, sensitive Gram-positive strain) denoted S, and S. aureus ITS-1199 (without efflux), as well as its derivative S. aureus ITS-1199B (Kaatz, G. W., Seo, S. M., Antimicrob. Agents Chemother., 1995, 39, 2650-2655) having a resistance to the fluoroquinolones due to the overexpression of the efflux pump NorA and denoted R NorA. The bacteria are cultured at 37° C. in Mueller-Hinton (MH, Bio Rad) or Luria-Bertani (LB, Difco) Medium.
The experiences are carried out as above, but using the resistant strain, and looking at the effect of the mixture of the molecule to be tested and the antibiotic to which the bacterium is resistant. Thus, the method of a series of dilutions in Mueller-Hinton medium is used, also starting from a molecule concentration of 100 or 128 μg/ml.

Series [2] deals with KB (human mouth carcinoma). As to the kind of experiment: In vitro cytotoxicity on KB cells. The class given is cell-based. The note with it: concentration of 10^−5 M. On the procedure:
(§1) The in vitro cytotoxicity results, measured at a concentration of 10^−5 M, are described below. The cytotoxicity was measured on 5 cell lines—KB (human mouth carcinoma), MCF7 (breast carcinoma) and MCF7R (resistant strain), Vero (monkey kidney) and HCT116 (human colon tumour).

Series [3] is described as follows: In vitro cytotoxicity on MCF7 cells. The note with it: human, MCF7 cells (breast carcinoma); concentration of 10^−5 M; read-out: Average cytotoxicity (% inhibition), MCF7 cells. The class given is cell-based. On the procedure: as §1
The nature of series [4]: in vitro. In kind it is cell-based. The note with it: human. Here is the method: as §1
Series [5] is described as follows: In vitro cytotoxicity on Vero cells. The class given is cell-based. The note with it: monkey, Vero cells (monkey kidney); concentration of 10^−5 M; read-out: Average cytotoxicity (% inhibition), Vero cells. Here is the method:
as §1

A short description of series [6]: In vitro cytotoxicity on HCT116 cells. The note with it: human, HCT116 cells (human colon tumour); concentration of 10^−5 M; read-out: Average cytotoxicity (% inhibition), HCT116 cells. The class given is cell-based. Here is the method: as §1

In the case of `CC(C)(C)OC(=O)NCC(c1c[nH]c2ccc(Br)cc12)/[N+]([O-])=C/c1ccccc1` (centres unmarked) [Compound (20 bis), N-(benzylidene)-2-[N′-(tert-butoxycarbonyl)amino]-1-(5′-bromo-3′-indolyl) ethanamine N-oxide], in series [1], the “MIC (μg/ml) of compound in the presence of ciprofloxacin at 4 μg/ml (c/4)” value was “c/2 = 1 c/4 = 1 μg/ml” and the “MIC (μg/ml) of compound in the presence of ciprofloxacin at 8 μg/ml (c/2)” value was “c/2 = 1 c/4 = 1 μg/ml”. In series [2], the “Average cytotoxicity (% inhibition), KB cells” value amounted to 38.3%. Moreover, in series [3], the cytotoxicity stood at 23.3%. The same molecule registered a cytotoxicity in series [4] of 38.1%.

With `COc1ccc2[nH]cc(C(CNC(=O)OC(C)(C)C)N(O)Cc3ccccc3)c2c1` (centres unmarked) [Compound (7)], in series [2], the “Average cytotoxicity (% inhibition), KB cells” value is 15.6%. In addition, the cytotoxicity in series [3] amounted to 9.7%; in series [4] it was 10.1%; in series [5] it was 8%; in series [6] it was 10%.

For the molecule `CC(C)(C)OC(=O)NCC(c1c[nH]c2ccccc12)N(O)Cc1ccccc1` (centres unmarked) [Compound (6)], the “MIC (μg/ml) of compound in the presence of ciprofloxacin at 4 μg/ml (c/4)” value in series [1] amounted to 4 µg/mL. Also, in series [1], the “MIC (μg/ml) of compound in the presence of ciprofloxacin at 8 μg/ml (c/2)” value was determined as 2 µg/mL. In addition, in series [2], the “Average cytotoxicity (% inhibition), KB cells” value is 33.7%. Besides, the cytotoxicity in series [3] was found to be 13.1%; in series [4], 16%; in series [5], 27%; in series [6], 29%.
